Results as given in PMC7998731, “Pharmacokinetic Characterization of Supinoxin and Its Physiologically Based Pharmacokinetic Modeling in Rats” (Pharmaceutics, 2021).
Like-named read-outs stand apart in the source and are kept apart here.

Legend:
[1] = cited from earlier work; for Plasma concentration, Mean: fasted male SD rats, oral 1 mg/kg, ref 15 (Table 2 footnote)
[2] = In vivo pharmacokinetic study, intravenous administration to rats; details: rat, plasma; for concentration at 0.083 h / concentration at 0.25 h / concentration at 0.5 h / concentration at 1 h / concentration at 3 h / concentration at 7 h / concentration at 10 h / concentration at 24 h: fasted male SD rats; for concentration at 24 h: BQL treated as 0; for AUC(0-inf) / AUC(0-t) / MRT / clearance / half-life / Vd: male
Protocol: (§1) Male Sprague Dawley (SD) rats, 6–7 weeks old, were purchased from Orient Bio Inc. (Seongnam-si, Korea) and were used in all in vivo studies. The animals were maintained at a temperature of 20–26 °C with a 12 h light/dark cycle and a relative humidity of 40–60%. The experimental protocols involving the animals used in this study were reviewed by the Animal Care and Use Committee of Chungnam National University (CNU-00576, Daejeon, Korea; approval date: 13 March 2015).
(§2) Supinoxin was dissolved in a vehicle (10% DMSO, 10% Tween 80, 40% PEG 400, and 40% saline). In single doses, the administration routes involved an intravenous bolus via the tail vein (n = 4–5) and an oral gavage dose (n = 4–5). The dosing volume was 2 mL per kg body weight, and the dosing range was 0.5, 1, and 5 mg/kg. Blood samples (200 µL) were collected from the jugular vein at 0.083 (intravenous only), 0.25, 0.5, 1, 3, 7, 10, and 24 h after dosing, using a heparinized syringe to ensure anticoagulation. During blood sampling, rats were placed in a restrainer (Nagai-CFS-1S; NMS, Tokyo, Japan). For the separation of plasma fractions, all blood samples were centrifuged at 17,600× g for 5 min. The samples were stored at −20 °C until analysis. When obtaining tissue concentrations to calculate the tissue-to-plasma partition ratio was necessary, samples of nine tissues (i.e., adipose, heart, muscle, kidney, brain, liver, spleen, gut, and lung) were collected at 0.33, 1, 3, 7, and 24 h after 5 mg/kg intravenous administration of supinoxin (n = 3).
(§3) The peak concentration (Cmax) and the time to reach Cmax (Tmax) were obtained directly from individual plasma concentration–time profiles. Linear trapezoidal rule was used to calculate the areas under the plasma concentration–time curve (AUC) and the first moment curve (AUMC), while the terminal half-life (T1/2) was calculated using 0.693/λ, where λ represents the slope of the log-transformed concentration–time profiles of the terminal phase. The systemic clearance (CL), mean residence time (MRT), and the volume of the distribution at the steady state (Vss) were calculated as follows: dose/AUC, AUMC/AUC, and MRT·CL, respectively. To calculate the absolute oral bioavailability (F) we divided the AUC obtained following oral administration by that obtained following intravenous administration of the respective dose.
(§4) To determine supinoxin concentrations in plasma, feces, and urine, we used a previously reported LC–MS/MS assay using DGG-200064 as an internal standard (IS). Briefly, an aliquot (50 μL) of IS solution (concentration 100 ng/mL) was added to 50 μL of plasma, feces, or urine sample, following which 400 μL of acetonitrile containing 0.1% formic acid was added. After vigorous vortexing for 10 min, the extract was centrifuged at 17,600 rpm for 10 min at 4 °C, and the supernatant was placed in an autosampler vial. An aliquot of 5 µL was then injected into the analytical column for chromatographic separation; the analytical system consisted of a 1200 series HPLC system (Applied Biosystems, Foster City, CA, USA) equipped with a turbo-electrospray interface in positive ionization mode.

[3] = cited from earlier work; for Plasma concentration, Mean: fasted male SD rats, intravenous 1 mg/kg, ref 15 (Table 1 footnote)
[4] = In vivo pharmacokinetic study, oral administration to rats; details: Sprague-Dawley, rat, plasma; for concentration at 0.25 h / concentration at 0.5 h / concentration at 1 h / concentration at 3 h / concentration at 7 h / concentration at 10 h / concentration at 24 h: fasted male SD rats; for concentration at 24 h: BQL treated as 0; for AUC(0-inf) / AUC(0-t) / Cmax / MRT / Tmax / half-life / bioavailability: male, rats, oral
Protocol: as §1, §2, §3, §4

[5] = rats, oral, 1 mg/kg, Jeong, J.-W. et al., 2017
[6] = Sprague-Dawley, intravenous 0.5 mg/kg
[7] = Sprague-Dawley, intravenous 5 mg/kg
[8] = Sprague Dawley, rats, intravenous, 0.5 mg/kg
[9] = Sprague Dawley, rats, intravenous, 5 mg/kg
[10] = rats, intravenous, 1 mg/kg, Jeong, J.-W. et al., 2017

COc1cc(OC)cc(N2CCN(C(=O)Nc3nc4cc(F)ccc4nc3OC)CC2)c1 [supinoxin, 1-(3,5-Dimethoxyphenyl)-4-[(6-Fluoro-2-Methoxyquinoxalin-3-yl) Aminocarbonyl] Piperazine]
Plasma concentration, Mean ([1]; 0.25 h): 211.9 ng/mL | Plasma concentration, Mean ([1]; 0.5 h): 233.6 ng/mL | Plasma concentration, Mean ([1]; 1 h): 231.2 ng/mL | Plasma concentration, Mean ([1]; 3 h): 122.2 ng/mL | Plasma concentration, Mean ([1]; 7 h): 34.9 ng/mL | Plasma concentration, Mean ([1]; 10 h): 13.7 ng/mL | Plasma concentration, Mean ([1]; 24 h, BQL treated as 0): 0.3 ng/mL | AUCinf [1, 5]: 1010 ± 420 ng·h/mL | AUClast [1, 5]: 984 ± 407 ng·h/mL | Cmax [1, 5]: 250 ± 93 ng/mL | F (absolute oral bioavailability) [1, 5]: 56.9 ± 23.7% | MRT [1, 5]: 3.15 ± 1.26 h | T1/2 [1, 5]: 2.11 ± 0.91 h | Tmax [1, 5]: 0.650 ± 0.337 h | concentration at 0.083 h [2, 6]: 313 ng/mL | concentration at 0.25 h [2, 6]: 255 ng/mL | concentration at 0.5 h [2, 6]: 206 ng/mL | concentration at 1 h [2, 6]: 140 ng/mL | concentration at 3 h [2, 6]: 79.3 ng/mL | concentration at 7 h [2, 6]: 20.8 ng/mL | concentration at 10 h [2, 6]: 8.2 ng/mL | concentration at 24 h [2, 6]: 0.3 ng/mL | concentration at 0.083 h [2, 7]: 2380 ng/mL | concentration at 0.25 h [2, 7]: 1640 ng/mL | concentration at 0.5 h [2, 7]: 1310 ng/mL | concentration at 1 h [2, 7]: 907 ng/mL | concentration at 3 h [2, 7]: 600 ng/mL | concentration at 7 h [2, 7]: 234 ng/mL | concentration at 10 h [2, 7]: 130 ng/mL | concentration at 24 h [2, 7]: 5.8 ng/mL | AUC(0-inf) [2, 8]: 727 ± 177 ng·h/mL | AUC(0-t) [2, 8]: 715 ± 180 ng·h/mL | MRT [2, 8]: 2.92 ± 0.65 h | clearance ([2]; Sprague Dawley, rats, intravenous, 0.5 mg/kg, read-out: CL (converted)): 11.9 mL/min/kg | half-life ([2]; Sprague Dawley, rats, intravenous, 0.5 mg/kg, read-out: T1/2 (converted)): 2.54 ± 0.83 h | AUC(0-inf) [2, 9]: 6130 ± 1750 ng·h/mL | AUC(0-t) [2, 9]: 6090 ± 1760 ng·h/mL | MRT [2, 9]: 4.07 ± 1.37 h | clearance ([2]; Sprague Dawley, rats, intravenous, 5 mg/kg, read-out: CL (converted)): 14.4 mL/min/kg | half-life ([2]; Sprague Dawley, rats, intravenous, 5 mg/kg, read-out: T1/2 (converted)): 2.8 ± 0.71 h | clearance ([2]; Sprague-Dawley, PBPK input parameter, Determined, from intravenous administration study, read-out: In vivo clearance (CLiv)): 3.16 mL/min | Vd ([2]; Sprague-Dawley, rats, intravenous, 0.5 mg/kg, read-out: Vss): 2.11 ± 0.803 L/kg | Vd ([2]; Sprague-Dawley, rats, intravenous, 5 mg/kg, read-out: Vss): 3.5 ± 1.45 L/kg | Vd ([2]; Sprague-Dawley, rats, intravenous, range over doses 0.5–5 mg/kg, read-out: steady state volume of distribution): 2.04 to 3.5 L/kg | clearance ([2]; Sprague-Dawley, rats, intravenous, range over doses 0.5–5 mg/kg, read-out: systemic clearance): 11.5 to 14.4 mL/min/kg | half-life ([2]; Sprague-Dawley, rats, intravenous, range over doses 0.5–5 mg/kg, read-out: terminal half-life): 2.54 to 2.8 h | Plasma concentration, Mean ([3]; 0.083 h): 860.2 ng/mL | Plasma concentration, Mean ([3]; 0.25 h): 682.2 ng/mL | Plasma concentration, Mean ([3]; 0.5 h): 501.6 ng/mL | Plasma concentration, Mean ([3]; 1 h): 292.4 ng/mL | Plasma concentration, Mean ([3]; 3 h): 194.2 ng/mL | Plasma concentration, Mean ([3]; 7 h): 52.3 ng/mL | Plasma concentration, Mean ([3]; 10 h): 20.8 ng/mL | Plasma concentration, Mean ([3]; 24 h, BQL treated as 0): 0.5 ng/mL | AUCinf [3, 10]: 1780 ± 300 ng·h/mL | AUClast [3, 10]: 1750 ± 320 ng·h/mL | T1/2 [3, 10]: 2.64 ± 0.39 h | Vss [3, 10]: 2.04 ± 0.316 L/kg | concentration at 0.25 h ([4]; oral 0.5 mg/kg): 51 ng/mL | concentration at 0.5 h ([4]; oral 0.5 mg/kg): 99.6 ng/mL | concentration at 1 h ([4]; oral 0.5 mg/kg): 99.6 ng/mL | concentration at 3 h ([4]; oral 0.5 mg/kg): 58 ng/mL | concentration at 7 h ([4]; oral 0.5 mg/kg): 13.1 ng/mL | concentration at 10 h ([4]; oral 0.5 mg/kg): 5 ng/mL | concentration at 24 h ([4]; oral 0.5 mg/kg): 0 ng/mL | concentration at 0.25 h ([4]; oral 5 mg/kg): 474 ng/mL | concentration at 0.5 h ([4]; oral 5 mg/kg): 676 ng/mL | concentration at 1 h ([4]; oral 5 mg/kg): 800 ng/mL | concentration at 3 h ([4]; oral 5 mg/kg): 480 ng/mL | concentration at 7 h ([4]; oral 5 mg/kg): 113 ng/mL | concentration at 10 h ([4]; oral 5 mg/kg): 40.4 ng/mL | concentration at 24 h ([4]; oral 5 mg/kg): 0.5 ng/mL | AUC(0-inf) ([4]; 0.5 mg/kg): 418 ± 133 ng·h/mL | AUC(0-t) ([4]; 0.5 mg/kg): 402 ± 130 ng·h/mL | Cmax ([4]; 0.5 mg/kg): 108 ± 36 ng/mL | MRT ([4]; 0.5 mg/kg): 2.99 ± 0.71 h | Tmax ([4]; 0.5 mg/kg): 0.8 ± 0.274 h | half-life ([4]; 0.5 mg/kg): 2 ± 0.5 h | bioavailability ([4]; 0.5 mg/kg, read-out: F (absolute oral bioavailability)): 57.4 ± 18.3% | AUC(0-inf) ([4]; 5 mg/kg): 3510 ± 1420 ng·h/mL | AUC(0-t) ([4]; 5 mg/kg): 3480 ± 1450 ng·h/mL | Cmax ([4]; 5 mg/kg): 823 ± 340 ng/mL | MRT ([4]; 5 mg/kg): 3.17 ± 0.36 h | Tmax ([4]; 5 mg/kg): 0.75 ± 0.289 h | half-life ([4]; 5 mg/kg): 2.02 ± 0.33 h | bioavailability ([4]; 5 mg/kg, read-out: F (absolute oral bioavailability)): 57.2 ± 23.1% | bioavailability ([4]; range over doses 0.5–5 mg/kg, read-out: absolute oral bioavailability): 56.9 to 57.4%
